{"source": "patent US20110250133A1", "about": "“GASTRIN […] PEPTIDE COMPOUNDS” (priority 2003, published 2011)", "key": {"[1]": {"system": "PC-3 prostate cancer cells", "assay": "Effect of drug treatment on GRP receptor binding (177Lu-AMBA) in PC-3 cells", "assay_type": "cell-based, human", "settings": "for decrease in 177Lu-AMBA binding (GRP receptor specific signal per cell): drug 0.1-1.0 μM (gefitinib 0.1-10 μM); for change in 177Lu-AMBA binding (GRP receptor specific signal per cell) vs untreated controls, PC-3: Table 25, range 0.001-0.1 μM", "method": "(§1) RPMI 1640 supplemented with 20 mM HEPES, 0.1% BSA (w/v), 0.5 mM PMSF (AEBSF), bacitracin (50 mg/500 ml), pH 7.4.\n(§2) Incubations were stopped by the addition of 200 μL of ice-cold binding buffer. Plates were washed three more times with binding buffer, 140 μL of scintillation fluid was added to each well, the plates were sealed and analyzed on a Microβ plate reader (Microbeta Trilux, Perkin-Elmer).\nPC-3 (human prostate adenocarcinoma, bone metastasis, AR-, ER) were obtained from the American Type Culture Collection. The growth medium for PC-3 cells is RPMI 1640 (10-041-CM, Mediatech, Inc), supplemented with 10% heat inactivated FBS (Hyclone, SH30070.03) and PSF-1× (as in Example LXVI). The binding buffer, lapatinib solutions, treatment method and cell binding assay is the same as in Example LXVI."}, "[2]": {"system": "BT-474 human breast cancer cells", "assay": "Effect of drug treatment on GRP receptor binding (177Lu-AMBA) in BT-474 cells", "assay_type": "cell-based", "settings": "for decrease in 177Lu-AMBA binding (GRP receptor specific signal per cell): drug 0.1-1.0 μM (4-OH Tamoxifen 0.001-0.1 μM); for change in 177Lu-AMBA binding (GRP receptor specific signal per cell) vs untreated controls, BT-474: Table 25, range 0.001-0.1 μM", "method": "BT-474 breast cancer cells (human primary invasive ductal carcinoma; ER+, PR+, amplified HER2/neu+) were obtained from the American Type Culture Collection. The growth medium for BT-474 cells is Hybri-care Medium (Cat No: 46X, ATCC) supplemented with 10% heat inactivated FBS (Hyclone, SH30070.03), 0.2% NaHCO3, and antibiotic/antimycotic “PSF-1×” (GibcoBRL, 15240-062) for a final concentration of penicillin-streptomycin (1×, 100 units/mL), and fungizone (0.25 μg/mL). […] Cells for binding experiments were plated on Day 0 at 5.6×10^4 cells/cm^2 in 96-well white/clear bottom microtiter plates (Falcon Optilux-I), or 96 well black/clear collagen I cellware plates (Beckton Dickinson Biocoat).\nas §1, §2\nTreatment: BT-474 cells were plated on Day 0 and treated on Days 1 and 2 (DT1, DT2)."}, "[3]": {"system": "T47D human breast cancer cells", "assay": "Effect of drug treatment on GRP receptor binding (177Lu-AMBA) in T47D cells", "assay_type": "cell-based", "settings": "for increase in 177Lu-AMBA binding (GRP receptor specific signal per cell): drug 0.1-1.0 μM (gefitinib 0.1-10 μM); for change in 177Lu-AMBA binding (GRP receptor specific signal per cell) vs untreated controls, T47D: Table 25, range 0.001-0.1 μM", "source_text": "T-47D breast cancer cells (human metastatic mammary gland ductal adenocarcinoma isolated from pleural effusion, ER+, PR+) were obtained from the American Type Culture Collection."}, "NMB-R": {"target": "T1, NMB-R (Rattus norvegicus, UniProt P24053)", "T1 construct": "C6, an NMB-R expressing rodent glioblastoma cell line; host or cells: C6 glioblastoma cells, intact adherent cells", "T1 sequence (P24053 1-390)": "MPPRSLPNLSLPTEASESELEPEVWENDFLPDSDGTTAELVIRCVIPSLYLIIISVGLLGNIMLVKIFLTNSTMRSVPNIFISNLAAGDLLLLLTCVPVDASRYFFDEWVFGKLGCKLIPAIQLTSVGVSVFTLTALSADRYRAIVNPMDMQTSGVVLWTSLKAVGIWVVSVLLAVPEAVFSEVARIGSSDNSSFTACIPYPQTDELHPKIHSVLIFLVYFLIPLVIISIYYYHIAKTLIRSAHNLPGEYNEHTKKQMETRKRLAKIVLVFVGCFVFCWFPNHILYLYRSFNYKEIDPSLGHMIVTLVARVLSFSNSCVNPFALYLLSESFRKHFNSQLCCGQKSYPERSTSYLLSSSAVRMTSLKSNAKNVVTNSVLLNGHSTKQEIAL", "assay": "Competition with 125I-NMB for NMB-R in C6 cells (linker specificity);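 note: test cells: rodent glioblastoma C6 line carrying NMB-R, human prostate cancer PC3 line carrying GRP-R, affinity fitted by one-site competition nonlinear regression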", "assay_type": "binding, rodent", "settings": "for receptor subtype preference (GRP-R vs NMB-R): from IC50 with 125I-NMB (C6) and 125I-BBN (PC3), cut off 10x the IC50 of [Tyr4]-BBN", "method": "Two cell lines, C6, an NMB-R expressing rodent glioblastoma cell line and PC3, a GRP-R expressing human prostate cancer cell line, were used in this assay. The affinity of various unlabeled compounds for each receptor subtype (NMB-R and GRP-R) was determined indirectly by measuring its ability to compete with the binding of ^125I-NMB or ^125I-BBN to its corresponding receptors in C6 and PC3 cells.\nCells for the assays were plated at a concentration of 9.6×10^4/well in 48 well poly-lysine coated plates (Beckton Dickinson Biocoat). PC3 were obtained from ATCC(CRL-1435) and cultured in RPMI 1640 (ATCC) supplemented with 2 mM L-glutamine, 1.5 g/L Sodium bicarbonate, 10 mM HEPES and 10% FBS. […] PC3 cells for the assays were plated at a concentration of 2.0×10^4 cells/well in 96-well white/clear bottom plates (Falcon Optilux-I). Plates were used for the assays on day 2 of the post-plating.\nRPMI 1640 (ATCC) containing 25 mM HEPES, 0.2% BSA fraction V, 1.0 mM AEBSF (CAS # 3087-99-7) and 0.1% Bacitracin (CAS # 1405-87-4), pH 7.4. Custom made ^125I-[Tyr^0]NMB, >2.0 Ci/μmole (Amersham Life Science) [^125I-NMB] and commercially available ^125I-[Tyr^4]BBN, >2.0 Ci/μmole (Perkin Elmer Life Science) [^125I-BBN] were used as radioligands.\nUsing a 48-well plate assay system (for C6 study) competition experiments were performed using ^125I-NMB. […] Selection of compounds for the assay was based on linker subtype.\nThe binding parameters obtained from the studies were analyzed using a one-site competition non-linear regression analysis with GraphPad Prism. The relative affinity of various compounds for NMB-R in C6 cells were compared with those obtained using commercially available [Tyr^4]-BBN and [Tyr^0]-NMB. To distinguish the GRP-R preferring compounds from NMB-R plus GRP-R preferring compounds, IC50 values obtained for each compound were compared with those obtained from [Tyr^4-BBN with ^125I-NMB on C6 cells."}, "GRP-R": {"target": "T2, GRP-R (Homo sapiens, UniProt P30550)", "T2 construct": "host or cells: PC3 (PC-3) human prostate cancer cells, intact adherent cells", "T2 sequence (P30550 whole entry)": "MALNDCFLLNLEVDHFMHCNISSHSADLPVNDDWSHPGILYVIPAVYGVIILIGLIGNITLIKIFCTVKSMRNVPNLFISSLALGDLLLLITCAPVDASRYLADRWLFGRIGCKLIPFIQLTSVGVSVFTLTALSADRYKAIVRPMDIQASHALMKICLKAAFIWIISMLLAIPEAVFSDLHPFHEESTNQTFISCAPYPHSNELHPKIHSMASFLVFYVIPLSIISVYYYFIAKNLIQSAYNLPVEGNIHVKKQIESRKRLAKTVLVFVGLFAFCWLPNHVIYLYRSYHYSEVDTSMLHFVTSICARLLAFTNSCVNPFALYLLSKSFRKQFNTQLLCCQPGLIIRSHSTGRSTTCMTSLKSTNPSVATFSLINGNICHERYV", "assay": "Competition studies of modified BBN analogs with 125I-BBN for GRP-R in PC3 cells (Example LXI)", "assay_type": "binding", "method": "PC3 cell lines were obtained from ATCC(CRL-1435) and cultured in RPMI 1640 (ATCC) supplemented with 2 mM L-glutamine, 1.5 g/L Sodium bicarbonate, 10 mM HEPES and 10% FBS. […] PC3 cells for the assays were plated at a concentration of 2.0×10^4 cells/well in a 96-well white/clear bottom plates (Falcon Optilux-I). Plates were used for the assays on day 2 of the post-plating.\n^125I-BBN (Cat # NEX258) was obtained from PerkinElmer Life Sciences.\nAll compounds tested were dissolved in binding buffer and appropriate dilutions were also done in binding buffer. PC3 cells for assay were seeded at a concentration of 2.0×10^4/well either in 96-well black/clear collagen I cellware plates (Beckton Dickinson Biocoat). Plates were used for binding studies on day 2 post-plating. The plates were checked for confluency (>90% confluent) prior to assay. […] The studies were conducted with an assay volume of 75 μL per well. Triplicate wells were used for each data point. After the addition of the appropriate solutions, plates were incubated for 1 hour at 4° C. Incubation was ended by the addition of 200 μL of ice-cold incubation buffer. Plates were washed 5 times and blotted dry. Radioactivity was detected using either a LKB CompuGamma counter or a microplate scintillation counter."}, "[4]": {"settings": "PC-3, relative to untreated control"}, "[5]": {"settings": "T-47D, relative to untreated control"}, "[6]": {"settings": "yes / —, cut off 10x the IC50 of [Tyr4]-BBN with 125I-NMB on C6 cells"}, "[7]": {"settings": "BT-474, relative to untreated control"}}, "note": "“Also recorded” adds a separate entry of the source."}
{"compound": "imatinib", "values": [{"measurement": "decrease in 177Lu-AMBA binding (GRP receptor specific signal per cell)", "setting": "[1]; [4]", "result": "15-25%"}, {"measurement": "change in GRP receptor specific signal per cell (177Lu-AMBA binding)", "setting": "[2]; BT-474, drug 0.1-1.0 μM (gefitinib 0.1-10 μM)", "result": "no change"}, {"measurement": "change in 177Lu-AMBA uptake (GRP-R) on a viable cell basis, BT-474", "setting": "[2]; drug 0.1-1.0 μM, ↑ increase, ↓ decrease vs untreated", "result": "NC (NC: Little(<10%) or no change in Lu-AMBA uptake)"}, {"measurement": "increase in 177Lu-AMBA binding (GRP receptor specific signal per cell)", "setting": "[3]; [5]", "result": "up to 15%"}]}
{"compound": "DO3A-monoamide-Apa3-QWAVGHLM-NH2", "values": [{"measurement": "receptor subtype preference (GRP-R vs NMB-R)", "setting": "NMB-R", "result": "dual affinity for both GRP-R and NMB-R"}, {"measurement": "GRP-R and NMB-R (binds both)", "setting": "NMB-R; [6]", "result": "yes"}]}
{"compound": "sunitinib", "values": [{"measurement": "increase in 177Lu-AMBA binding (GRP receptor specific signal per cell)", "setting": "[1]; PC-3, relative to untreated control, drug 0.1-1.0 μM", "result": "up to 10%"}, {"measurement": "decrease in 177Lu-AMBA binding (GRP receptor specific signal per cell)", "setting": "[2]; [7]", "result": "up to 8%"}, {"measurement": "increase in 177Lu-AMBA binding (GRP receptor specific signal per cell)", "setting": "[3]; [5]", "result": "up to 13%"}]}
{"compound": "CC/C(=C(\\c1ccc(O)cc1)c1ccc(OCCN(C)C)cc1)c1ccccc1", "note": "[Compounds 4-OH-Tamoxifen]", "values": [{"measurement": "change in 177Lu-AMBA binding (GRP receptor specific signal per cell) vs untreated controls, PC-3", "setting": "[1]", "result": 0, "unit": "%"}, {"measurement": "change in 177Lu-AMBA binding (GRP receptor specific signal per cell) vs untreated controls, BT-474", "setting": "[2]", "result": "−73", "unit": "%"}, {"measurement": "change in 177Lu-AMBA binding (GRP receptor specific signal per cell) vs untreated controls, T47D", "setting": "[3]", "result": "−35", "unit": "%"}]}
{"compound": "DO3A-monoamide-Nal1-Bip-QWAVGHLM-NH2", "values": [{"measurement": "receptor subtype preference (GRP-R vs NMB-R)", "setting": "NMB-R", "result": "selective affinity towards GRP-R"}, {"measurement": "GRP-R (GRP-R preferring)", "setting": "NMB-R; [6]", "result": "yes"}]}
{"compound": "N-[4-[[[[4,7,10-Tris(carboxymethyl)-1,4,7,10-tetraazacyclododec-1-yl]acetyl]glycyl]amino]-3-methoxybenzoyl]-L-glutaminyl-L-tryptophyl-1-alanyl-L-valyl-glycyl-L-histidyl-L-leucyl-L-methioninamide [Compound L240]", "values": [{"measurement": "receptor subtype preference (GRP-R vs NMB-R)", "setting": "NMB-R", "result": "selective affinity to GRP-R"}]}
{"compound": "bortezomib", "values": [{"measurement": "decrease in 177Lu-AMBA binding (GRP receptor specific signal per cell)", "setting": "[1]; [4]", "result": "up to 60%"}, {"measurement": "decrease in 177Lu-AMBA binding (GRP receptor specific signal per cell)", "setting": "[2]; [7]", "result": "up to 50%"}, {"measurement": "decrease in 177Lu-AMBA binding (GRP receptor specific signal per cell)", "setting": "[3]; T-47D, relative to untreated control, drug 0.1-1.0 μM (4-OH Tamoxifen 0.001-0.1 μM)", "result": "up to 50%"}]}
{"compound": "N-[(3β,5β,12α)-3-[[[4,7,10-Tris(carboxymethyl)-1,4,7,10-tetraazacyclododec-1-yl]acetyl]amino]-4-aminobenzoyl-glycyl-L-glutaminyl-L-tryptophyl-L-alanyl-L-valyl-glycyl-L-histidyl-L-leucyl-L-methioninamide [Compound L204]", "values": [{"measurement": "receptor subtype preference (GRP-R vs NMB-R)", "setting": "NMB-R", "result": "selective affinity to NMB-R; also recorded: favor the NMB subtype"}, {"measurement": "receptor preference in words (GRP-R / GRP-R and NMB-R)", "setting": "NMB-R; wrapped cell: 'No selective preference' or 'preference for NMB-R'", "result": "preference for NMB-R"}]}
{"compound": "N-[(3β,5β,12α)-3-[[[4,7,10-Tris(carboxymethyl)-1,4,7,10-tetraazacyclododec-1-yl]acetyl]amino]-glycyl-4-aminobenzoyl-L-glutaminyl-L-tryptophyl-L-alanyl-L-valyl-glycyl-L-histidyl-L-phenylalanyl-L-methioninamide [Compound L228]", "values": [{"measurement": "competition at the GRP-R", "setting": "GRP-R", "result": "maintains GRP-R activity"}]}
{"compound": "C[C@]12CC[C@@H]3c4ccc(O)cc4CC[C@H]3[C@@H]1CC[C@@H]2O", "note": "[β2-estradiol]", "values": [{"measurement": "change in GRP receptor specific signal per cell (177Lu-AMBA binding)", "setting": "[1]; PC-3, drug 0.1-1.0 μM (4-OH Tamoxifen 0.001-0.1 μM)", "result": "no change"}, {"measurement": "change in 177Lu-AMBA binding (GRP receptor specific signal per cell) vs untreated controls, PC-3", "setting": "[1]", "result": 0, "unit": "%"}, {"measurement": "increase in 177Lu-AMBA binding (GRP receptor specific signal per cell)", "setting": "[2]; BT-474, relative to untreated control, drug 0.1-1.0 μM (β2-estradiol 1 nM)", "result": 47, "unit": "%"}, {"measurement": "change in 177Lu-AMBA binding (GRP receptor specific signal per cell) vs untreated controls, BT-474", "setting": "[2]", "result": 47, "unit": "%"}, {"measurement": "change in GRP receptor specific signal per cell (177Lu-AMBA binding)", "setting": "[3]; T-47D", "result": "did not change"}, {"measurement": "change in 177Lu-AMBA binding (GRP receptor specific signal per cell) vs untreated controls, T47D", "setting": "[3]", "result": 0, "unit": "%"}]}
{"compound": "N-[(3β,5β,12α)-3-[[[4,7,10-Tris(carboxymethyl)-1,4,7,10-tetraazacyclododec-1-yl]acetyl]amino]-glycyl-4-aminobenzoyl-L-leucyl-L-tryptophyl-L-alanyl-L-threonyll-glycyl-L-histidyl-L-phenylalanyl-L-methioninamide [Compound L227]", "values": [{"measurement": "receptor subtype preference (GRP-R vs NMB-R)", "setting": "NMB-R", "result": "affinity to GRP-R in addition to its inherent NMB-R affinity"}]}
